Laboratory results reported in PMC9925730, “Controlled sequential in situ self-assembly and disassembly of a fluorogenic cisplatin prodrug for cancer theranostics” (Nature Communications, 2023).
Values joined by “and” are separate entries in the source; they are usually repeats but may differ in a detail not shown here. Equal values may be shown once.

Experiments:
[1] = test system: orthotopic HepG2/Luc liver tumors; experiment: Chemotherapy of orthotopic liver tumors (BL imaging, ex vivo BL and FL imaging); type: in vivo, mice;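 note: bioluminescence quantified by ROI over liver region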
[2] = Body weight of mice with orthotopic HepG2/Luc liver tumors; type: in vivo; settings: mean of 3, in g (unit assumed)
[3] = Blood circulation half-life (ICP-OES of Pt); type: in vivo, mice; settings: for blood circulation half-life t1/2: mice, i.v., 2.25 mg kg-1 Pt
From the text: Scale bar: 100 μm. The occurrence of hepatotoxicity in […]-treated mice could be presumably owing to (1) the large size of […] (~160 nm) that caused a high liver uptake and (2) the fast release of cytotoxic cisplatin from the liver-resided […] by hepatic GSH that led to a high concentration of cisplatin in the liver. One representative experiment out of two is shown. 30 PBS CDDP Pt IV NP sP- Cy Pt 20 10 0 013 619 25 Days Supplementary Figure 34. Monitoring of the body weight of mice with orthotopic HepG2/Luc liver tumors following indicated treatments. […] Values denote mean ± s.d. (n = 4 independent animals). 120 CDDP Pt IV NP s […] 40 0 0 25510 2015 Time (h) Supplementary Figure 35. Examination of the blood circulation half-lives of […], and CDDP. Plots of the relative amount of Pt (%) in the blood after i.v. injection of […], and CDDP (at a dose of 2.25 mg kg-1 Pt) into healthy mice. Data are mean ± s.d. (n = 3 independent animals). […] 0.23 h). […] The residues were then diluted with 5 mL 2% HNO3 and 5% HCl solution, and the concentrations of Pt element were determined by ICP-OES, which were further applied to calculate the contents of Pt element in the blood. The plot of the percentage of Pt element remained in the blood versus injection time to yield the pharmacokinetic time. Urine and Faeces analysis. […] Urine and faeces were collected at 2 (for 0-2 h), 4 (for 2-4 h), 8 (for 4- 8 h) and 12 h (for […]), which were diluted in methanol and centrifuged at 3,600 × g for 10 min, followed by filtering via a 0.22 μm syringe filter. The solutions were analyzed by HPLC (660 nm detection) to characterize all the mCy-containing compounds. Using the established standard curves for […] Cy-COOH, the amount of each compound in the urine and faeces could be calculated, which were further applied to determine the percentage of them in the urine and faeces. The data were summarized in Supplementary Tables 5-8. […] Urine and faeces were collected and weighed. The urine and faeces were digested with concentrated HNO3 (65~70%) and HCl (36~38%) at 90 °C for 24 h. The solution was diluted to 5 mL 2% HNO3 and 5% HCl solution, and the concentration of Pt element was measured by ICP-OES, which was further applied to calculate the percentage of Pt in corresponding urine and faeces. The data were summarized in Supplementary Tables 9 and 10. 47

[4] = 2.25 mg kg^−1 Pt i.v. day 0, 3, 6, 9, 12, day 3

## [NH2][Pt]([NH2])([Cl])[Cl] [CDDP, cisplatin]
[1]; [4]
  tumor BL intensity of liver: 88767.5
[1]; day 6
  tumor BL intensity of liver: 201697.5
[1]; day 9
  tumor BL intensity of liver: 375850.0
[1]; day 12
  tumor BL intensity of liver: 589375.0
[2]; time 0 d
  Body weight of mice (Supplementary Fig. 34): 20.65
[2]; time 3 d
  Body weight of mice (Supplementary Fig. 34): 20.2
[2]; time 6 d
  Body weight of mice (Supplementary Fig. 34): 19.4233
[2]; time 9 d
  Body weight of mice (Supplementary Fig. 34): 18.65
[2]; time 12 d
  Body weight of mice (Supplementary Fig. 34): 17.8733
[2]; time 15 d
  Body weight of mice (Supplementary Fig. 34): 17.5
[3]; Time 0 h, individual mice
  Relative Pt amount in blood: 93.8305 and 92.1406 and 114.029
[3]; Time 0 h, mean of 3 mice
  Relative Pt amount in blood: 100
[3]; Time 0.5 h, individual mice
  Relative Pt amount in blood: 57.2961 and 52.6288 and 39.5118
[3]; Time 0.5 h, mean of 3 mice
  Relative Pt amount in blood: 49.8122
[3]; Time 1 h, individual mice
  Relative Pt amount in blood: 22.492 and 12.6341 and 19.9651
[3]; Time 1 h, mean of 3 mice
  Relative Pt amount in blood: 18.3637
[3]; Time 2 h, individual mice
  Relative Pt amount in blood: 7.725 and 8.771 and 6.76
[3]; Time 2 h, mean of 3 mice
  Relative Pt amount in blood: 7.752
[3]; Time 4 h, individual mice
  Relative Pt amount in blood: 2.808 and 1.569 and 2.181
[3]; Time 4 h, mean of 3 mice
  Relative Pt amount in blood: 2.186
[3]; Time 8 h, individual mice
  Relative Pt amount in blood: 1.408 and 0.5955 and 1.521
[3]; Time 8 h, mean of 3 mice
  Relative Pt amount in blood: 1.175
[3]; Time 12 h, individual mice
  Relative Pt amount in blood: 1.746 and 1.28 and 0.8611
[3]; Time 12 h, mean of 3 mice
  Relative Pt amount in blood: 1.2956
[3]; Time 24 h, individual mice
  Relative Pt amount in blood: 1.634 and 0.8852 and 0.6518
[3]; Time 24 h, mean of 3 mice
  Relative Pt amount in blood: 1.057
[3]
  blood circulation half-life t1/2: 43.8 ± 2.4 min

## CC1(C)C(/C=C/C2=C3Oc4cc(OP(=O)(O)O)c(Cl)cc4C=C3CCC2)=[N+](CCCNC(=O)[C@@H](Cc2ccccc2)NC(=O)[C@@H](Cc2ccccc2)NC(=O)CCC(=O)[O][Pt]([NH2])([NH2])([OH])([Cl])[Cl])c2ccccc21 [P-CyPt]
[1]; [4]
  tumor BL intensity of liver: 2725.3
[1]; day 6
  tumor BL intensity of liver: 3155.3
[1]; day 9
  tumor BL intensity of liver: 3616.5
[1]; day 12
  tumor BL intensity of liver: 6594.0
[2]; time 0 d
  Body weight of mice (Supplementary Fig. 34): 19.4
[2]; time 3 d
  Body weight of mice (Supplementary Fig. 34): 19.7033
[2]; time 6 d
  Body weight of mice (Supplementary Fig. 34): 19.4233
[2]; time 9 d
  Body weight of mice (Supplementary Fig. 34): 19.8233
[2]; time 12 d
  Body weight of mice (Supplementary Fig. 34): 20.0233
[2]; time 15 d
  Body weight of mice (Supplementary Fig. 34): 19.9233
[3]; Time 0 h, individual mice
  Relative Pt amount in blood: 89.0517 and 110.783 and 100.165
[3]; Time 0 h, mean of 3 mice
  Relative Pt amount in blood: 100
[3]; Time 0.5 h, individual mice
  Relative Pt amount in blood: 75.3589 and 72.0355 and 86.1448
[3]; Time 0.5 h, mean of 3 mice
  Relative Pt amount in blood: 77.8464
[3]; Time 1 h, individual mice
  Relative Pt amount in blood: 48.6558 and 63.4564 and 58.4934
[3]; Time 1 h, mean of 3 mice
  Relative Pt amount in blood: 56.8685
[3]; Time 2 h, individual mice
  Relative Pt amount in blood: 21.7134 and 35.2733 and 24.195
[3]; Time 2 h, mean of 3 mice
  Relative Pt amount in blood: 27.0606
[3]; Time 4 h, individual mice
  Relative Pt amount in blood: 12.3988 and 8.818 and 6.257
[3]; Time 4 h, mean of 3 mice
  Relative Pt amount in blood: 9.158
[3]; Time 8 h, individual mice
  Relative Pt amount in blood: 7.923 and 5.247 and 4.422
[3]; Time 8 h, mean of 3 mice
  Relative Pt amount in blood: 5.864
[3]; Time 12 h, individual mice
  Relative Pt amount in blood: 4.1743 and 2.189 and 3.164
[3]; Time 12 h, mean of 3 mice
  Relative Pt amount in blood: 3.176
[3]; Time 24 h, individual mice
  Relative Pt amount in blood: 1.657 and 1.56 and 1.79
[3]; Time 24 h, mean of 3 mice
  Relative Pt amount in blood: 1.669
[3]
  blood circulation half-life t1/2: 32.4 ± 3.6 min
